Results: PubChem BioAssay AID179 (DTP/NCI, 2004)
Calls of active or inactive are those of the source.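 How the source made its calls: active means compounds giving half or more protection of infected cells from virus-caused growth loss, again on retest; inactive means the rest.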

System: CEM cells HIV-1 protection, formazan growth assay
Assay: NCI AIDS Antiviral Assay
Conditions: for IC50: measured here: growth of uninfected CEM cells
Method in brief: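 Protection of CEM cells against HIV-1 was scored from cell growth (soluble formazan) across five concentrations, with parallel uninfected cells. Lack of protection may reflect toxicity.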

Row | Structure (SMILES) | EC50 [µM] | IC50 [µM] | outcome
1 | CCN(c1ccc(Br)cc1)c1c(Br)c(=O)nc2ccccn12 | > 525 | 97.7 | –
2 | O=C(/C=C(\Nc1ccccc1O)c1ccccc1)C(=O)NC12CC3CC(CC(C3)C1)C2 | > 200 | > 200 | –
3 | Cc1c(S(=O)c2cc(C(C)(C)C)c(O)c(CN3CCCC3)c2C)cc(C(C)(C)C)c(O)c1CN1CCCC1 | > 200 | 13.5 | –
4 | Cc1ccc([N+](=O)[O-])cc1NC(=O)C(=O)Cc1cc(=O)oc2cc(O)ccc12 | > 468 | 363 | –
5 | N/C(=N/N=C/c1ccc(Cl)c([N+](=O)[O-])c1)NO | – | – | inactive
6 | CC1CC(O)c2ccccc2O1 (stereo not drawn) | > 200 | > 200 | –
7 | C[C@]12CCC3(CC1C(=O)CC[C@@H]2OCc1ccccc1)OCCO3 (stereo partly drawn) | – | – | active
8 | CC1Cn2c(c(-c3ccccc3)c(=O)[nH]c2=O)O1 (stereo not drawn) | > 363 | > 363 | –
9 | O=[N+]([O-])C=C1c2ccccc2-c2ccccc21 | – | – | inactive
10 | COC1C(OC(=O)/C=C/C=C/C=C/C=C\C(=O)O)CCC2(CO2)C1C1(C)OC1CC=C(C)C (stereo not drawn) | 49 | > 200 | –
11 | COc1ccc(C2C3=C(COC3=O)OC(C)(C)Oc3cc4c(cc32)OCO4)cc1 (stereo not drawn) | > 200 | 13.8 | –
12 | C[N+](C)(C)C1C=CCC2=C1S(=O)(=O)C2 (stereo not drawn) | > 741 | 355 | –
13 | NCCN.O=C([O-])CC(O)C(=O)[O-].[Pt+4] (stereo not drawn) | > 200 | 12 | –
14 | O=C1c2ccccc2C(=O)c2c(NCCNC(=O)C3CCCN3)ccc(NCCNC(=O)C3CCCN3)c21 (stereo not drawn) | > 151 | 22.4 | –
15 | NC(CSS(=O)(=O)O)=NCCCOCc1ccccc1 | > 200 | 112 | –
16 | CC(C)[Si](OC1=C(C(=O)Nc2ccccc2Cl)CCCCC1)(C(C)C)C(C)C | > 200 | 70.8 | –
17 | Cc1ccc(C(=O)O/N=C2/CCCC/C2=C\c2ccccc2)cc1 | – | – | inactive
18 | Cc1nn(C(=O)c2ccccc2O)c2c1C(c1ccc(O)cc1)SC(N)=N2 (stereo not drawn) | > 2 | 0.129 | –
19 | O=c1oc(-c2ccccc2Br)ns1 | > 100 | 52.5 | –
20 | COC(=O)C(C)(C)C(OP(=S)(N(C)C)N(C)C)=C(C)C | > 22.4 | > 22.4 | –
21 | O=C1c2ccccc2CC12Cc1ccc3c(c1C2)CCC3 (stereo not drawn) | > 200 | 89.1 | –

Row | Structure (SMILES) | EC50 [µM] | IC50 [µM] | outcome
22 | COC(=O)CP1(=O)OC2C(C3CCC2(C)C3(C)C)N1c1cc(C(F)(F)F)cc(C(F)(F)F)c1 (stereo not drawn) | > 200 | – | –
23 | O=C1/C(=C/c2ccccc2Cl)COc2ccccc21 | > 19.1 | 11.2 | –
24 | OCCO[P+]1(OCCO)n2c3ccc2C(c2ccccc2)=C2C=CC(=N2)C(c2ccccc2)=c2ccc(n21)=C(c1ccccc1)C1=NC(=C3c2ccccc2)C=C1 | > 0.2 | 0.0813 | –
25 | CC1CC(C)CC(NC2=NCCO2)C1 (stereo not drawn) | > 200 | > 200 | –
26 | CC12CCC(C/C1=N\NC(N)=O)C2(C)C (stereo not drawn) | > 200 | > 200 | –
27 | CN(C)CCn1c(=O)c2ccc(NCCNCCO)c3c(=O)c4cc(O)ccc4n(c1=O)c23 | > 2 | 0.407 | –
28 | COC(O)C(=O)c1ccc2c(c1)CC1(C2)Cc2cc3c(cc2C1=O)CCC3 (stereo not drawn) | > 200 | 32.4 | –
29 | O=C(O)CC(=O)Nc1ccccc1S | > 200 | > 200 | –
30 | N#Cc1cnc(-n2[nH]c3c(c2=O)CCCC3)[nH]c1=O | – | – | inactive
31 | O=C(CN1CCC(O)(c2ccccc2)CC1)N1CCN(/C=C/c2ccccc2)CC1 | > 200 | 58.9 | –
32 | Cc1cccc(/C(Br)=C2/OC(=O)c3ccccc32)c1 | > 200 | 182 | –
33 | COc1ccc(CC2COC(=O)[C@@H]2Cc2ccccc2)cc1OC (stereo partly drawn) | > 200 | 75.9 | –
34 | O=[N+]([O-])c1ccc(Cc2nc3ccccc3s2)cc1 | > 132 | 38 | –
35 | FC(F)(F)c1nc(-c2ccccc2)oc1Sc1nnc(Sc2oc(-c3ccccc3)nc2C(F)(F)F)s1 | – | – | inactive
36 | COc1ccc2c(c1)CCc1c(-c3noc4c3CCc3cc(OC)ccc3-4)noc1-2 | > 234 | > 234 | –
37 | CCOC(=O)C(Cl)(NC(=O)c1c(F)c(F)c(F)c(F)c1F)C(F)(F)F (stereo not drawn) | – | – | inactive
38 | O=c1c2c(oc3cc(OCC4CO4)ccc13)CCC2 (stereo not drawn) | > 200 | 50.1 | –
39 | Nc1nc(Cl)cc(NCC2(CO)CC(CCc3ccccc3)C2)n1 (stereo not drawn) | > 20 | 14.8 | –
40 | CC1(C)C(=O)N2C(=O)CC(=O)N2C1=O | > 457 | > 457 | –
41 | COC(=O)Nc1cn2ccsc2n1 | – | – | inactive
42 | CC(=O)NNc1nc(C)c(C(/C=C/c2ccc([N+](=O)[O-])cc2)=N/NC(N)=O)s1 | > 33.9 | > 33.9 | –

Row | Structure (SMILES) | EC50 [µM] | IC50 [µM] | outcome
43 | COC1/C=C\OC2(C)Oc3c(C)c(O)c4c(O)c(c(/C=N\N(C)C)c(O)c4c3C2=O)NC(=O)/C(C)=C\C=C/C(C)C(O)C(C)C(O)C(C)C(OC(C)=O)C1C (stereo not drawn) | > 200 | 12.9 | –
44 | COc1cccc2c1[C@H]1OC(=O)NC1CCCCC2 (stereo partly drawn) | > 200 | > 200 | –
45 | CCOC(=O)c1cn2c(ccc3sc4ccccc4c(=O)c32)n1 | > 200 | > 200 | –
46 | O=C1CC2(CCC(O)(c3ccc(Cl)cc3)C(C(=O)c3ccc(Cl)cc3)C2)C(=O)c2ccccc2N1 (stereo not drawn) | > 200 | 67.6 | –
47 | CCCCCCCSc1ccc(/C=C(\C#N)c2ccc(OCCN(CC)CC)cc2)cc1 | > 100 | 1.86 | –
48 | COC(=O)Cc1ccc(COC(=O)c2cc(C(=CCC[C@H]3CC[C@@]4(C)[C@@H](CC[C@@H]5[C@@H]4CC[C@]4(C)[C@@H]([C@H](C)CCCC(C)C)CC[C@@H]54)C3)c3cc(Cl)c(OCc4ccc(CC(=O)OC)cc4)c(C(=O)OCc4ccc(CC(=O)OC)cc4)c3)cc(Cl)c2OCc2ccc(CC(=O)OC)cc2)cc1 | > 200 | > 200 | –
49 | COC1OC2=CCC3C(=O)N(c4ccccc4)C(=O)C3C2[C@H](OCc2ccccc2)C1OCc1ccccc1 (stereo partly drawn) | – | – | inactive
50 | C[C@]12CCC(=O)C=C1CC[C@@H]1[C@@H]2C(=O)C[C@@]2(C)[C@H]1CC[C@]2(O)C(=O)CO | > 200 | > 200 | –
51 | c1ccc(CCC2=Nc3ccccc3CO2)cc1 | > 110 | > 110 | –
52 | O=S(=O)(NCCO)c1cc[c]([Sb](=[O])([OH])[OH])cc1 | > 200 | > 200 | –
53 | C/C=C(\C1CC(=O)N2CCc3c([nH]c4ccccc34)C2C1)[Si](C)(C)C (stereo not drawn) | > 14.8 | > 14.8 | –
54 | CC(C)(C)[Si](C)(C)OCC#C[C@@]1(O)CCCCC1CC(Sc1ccccc1)Sc1ccccc1 (stereo partly drawn) | > 200 | 12.6 | –
55 | Cc1cc(-c2ccc(N=Nc3c(N)c(S(=O)(=O)O)cc4cc(S(=O)(=O)O)ccc34)c(C)c2)ccc1N=Nc1c(N)ccc2cc(S(=O)(=O)O)ccc12 | – | – | active
56 | NNC(=O)NNC(=O)NN | > 200 | > 200 | –
57 | CC#CCCCC1(C)CCNC1=S (stereo not drawn) | > 200 | > 200 | –
58 | O=c1c2cc(Br)cc(Br)c2[nH]c(=S)n1-c1ccccc1 | > 316 | 126 | –
59 | CCOC(=O)C(=O)N=Nc1c(O)[nH]c2ccccc12 | > 200 | > 200 | –
60 | CNC(=O)c1n[nH]n(Cc2ccccc2)c1=S | > 200 | > 200 | –
61 | COc1ccc2[nH]cc(C(=O)C(=O)NC34CC5CC(CC(C5)C3)C4)c2c1 | > 200 | 6.03 | –
62 | Cc1cc(C)c(C2CNCc3cc4c(cc32)CNCC4c2c(C)cc(C)cc2C)c(C)c1 (stereo not drawn) | > 20 | 2.57 | –
